From patent US20210317140A1, “Heterocyclic Compounds and Methods of Use” (MEDIVATION TECHNOLOGIES, INC, priority 2013, published 2021) come the findings set out here.

What all share (assay type): biochemical
The target of one test is T1, PI3Kα (Homo sapiens, UniProt P42336).
T1 construct: purchased Reaction Biology Corporation
Put plainly: PI3Kα isoform profiling (PI3Kδ protocol). The settings on record: for PI3Kα @ 0.3 μM (% Inh): 0.3 μM compound; for IC50: 10 dose IC50. The text has this: (§1) PI3Kδ assay: The PIP3 product is detected by displacement of biotin-PIP3 from an energy transfer complex consisting of Europium labeled anti-GST monoclonal antibody, a GST-tagged pleckstrin homology (PH) domain, biotinylated PIP3 and Streptavidin-Allophycocyanin (APC). Excitation of Europium in the complex results in an energy transfer to the APC and a fluorescent emission at 665 nm. The PIP3 product formed by PI 3-Kinase(h) activity displaces biotin-PIP3 from the complex resulting in a loss of energy transfer and thus a decrease in signal. This is a 3-step reaction: First, the kinase reaction with PIP2 substrate is carried out in the presence of ATP (10 μM), and the reaction is quenched with stop Solution, and then finally detect by adding Detection Mixture followed by incubation (10 min). Reaction procedure: 1) Prepare substrate in freshly prepared Reaction Buffer. 2) Deliver kinase into the substrate solution and gently mix. 3) Deliver compounds in 100% DMSO (1 μM) into the kinase reaction mixture by Acoustic technology (Echo550; nanoliter range), incubate for 10 min at RT. 4) Deliver ATP into the reaction mixture to initiate the reaction. 5) Incubate for 30 min at 30° C. 6) Quench the reaction with Stop Solution. 7) Add Detection Mixture, and incubate for overnight. 8) Measure HTRF: Ex=320 nm, ratio of Em=615 nm and Em=665 nm. The emission ratio is converted into μM PIP3 production based on PIP3 standard curves. The nonlinear regression to obtain the standard curve and IC50 values are performed using Graphpad Prism software. Assay Buffer: HEPES 50 mM (pH7.0), NaN3 0.02%, BSA 0.01%, Orthovanadate 0.1 mM, 1% DMSO. Detection buffer: HEPES 10 mM (pH7.0), BSA 0.02%, KF 0.16 M, EDTA 4 mM. Substrate: 10 μM PIP2 substrate (PI(4,5)P2).
(§2) Compounds of the invention were profiled in a 10 dose IC50 panel against PI3Kα, PI3Kβ, and PI3Kγ kinases, provided by Reaction Biology Corporation, applied to the PI3Kδ protocol provided in Example B1.

The next test addresses T2, PI3Kβ (Homo sapiens, UniProt P42338).
T2 construct: purchased Reaction Biology Corporation
Put plainly: PI3Kβ isoform profiling (PI3Kδ protocol). As to conditions: for PI3Kβ @ 0.3 μM (% Inh): 0.3 μM compound; for IC50: 10 dose IC50.
Source text: as §1, §2

In another test the target is T3, ITK (Homo sapiens, UniProt Q08881).
T3 construct: purchased Reaction Biology Corporation
T3 sequence (Q08881 1-620): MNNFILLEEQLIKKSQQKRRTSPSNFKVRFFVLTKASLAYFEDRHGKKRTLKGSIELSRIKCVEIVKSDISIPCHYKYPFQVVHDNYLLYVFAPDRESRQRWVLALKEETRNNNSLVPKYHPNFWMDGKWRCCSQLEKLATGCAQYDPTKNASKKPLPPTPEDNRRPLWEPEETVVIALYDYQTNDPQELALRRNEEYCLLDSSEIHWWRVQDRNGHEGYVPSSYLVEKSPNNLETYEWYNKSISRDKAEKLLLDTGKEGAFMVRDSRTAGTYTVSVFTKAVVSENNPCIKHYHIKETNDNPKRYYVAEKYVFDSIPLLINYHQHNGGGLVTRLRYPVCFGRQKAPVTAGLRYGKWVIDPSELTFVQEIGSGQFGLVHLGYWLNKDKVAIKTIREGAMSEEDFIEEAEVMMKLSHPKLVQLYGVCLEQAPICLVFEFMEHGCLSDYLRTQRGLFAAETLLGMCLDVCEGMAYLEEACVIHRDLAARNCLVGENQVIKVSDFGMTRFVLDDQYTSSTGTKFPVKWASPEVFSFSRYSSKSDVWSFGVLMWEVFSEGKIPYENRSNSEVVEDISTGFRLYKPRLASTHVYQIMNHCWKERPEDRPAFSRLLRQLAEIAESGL
Put plainly: ITK kinase profiling (BTK protocol). As to conditions: for ITK @ 0.3 μM (% Inh): 0.3 μM compound; for IC50: 10 dose IC50. The protocol: BTK assay: In vitro profiling protein kinases was performed using the “HotSpot” assay platform. Briefly, specific kinase/substrate pairs along with required cofactors were prepared in reaction buffer. Compounds were prepared as 10 mM stock solutions in DMSO. Compounds were delivered into the reaction, followed 15-20 minutes later by addition of a mixture of ATP (Sigma, St. Louis Mo.) and ^33P ATP (Perkin Elmer, Waltham Mass.) to a final concentration of 10 μM. […] IC50 values and curve fits were obtained using Prism (GraphPad Software). Buffer Conditions: 20 mM Hepes (pH 7.5), 10 mM MgCl2, 1 mM EGTA, 0.02% Brij35, 0.02 mg/mL BSA, 0.1 mM Na3VO4, 2 mM DTT, 1% DMSO.

Structures are written as SMILES. Bounds are passed on as bounds.

T1 sequence (P42336 whole entry): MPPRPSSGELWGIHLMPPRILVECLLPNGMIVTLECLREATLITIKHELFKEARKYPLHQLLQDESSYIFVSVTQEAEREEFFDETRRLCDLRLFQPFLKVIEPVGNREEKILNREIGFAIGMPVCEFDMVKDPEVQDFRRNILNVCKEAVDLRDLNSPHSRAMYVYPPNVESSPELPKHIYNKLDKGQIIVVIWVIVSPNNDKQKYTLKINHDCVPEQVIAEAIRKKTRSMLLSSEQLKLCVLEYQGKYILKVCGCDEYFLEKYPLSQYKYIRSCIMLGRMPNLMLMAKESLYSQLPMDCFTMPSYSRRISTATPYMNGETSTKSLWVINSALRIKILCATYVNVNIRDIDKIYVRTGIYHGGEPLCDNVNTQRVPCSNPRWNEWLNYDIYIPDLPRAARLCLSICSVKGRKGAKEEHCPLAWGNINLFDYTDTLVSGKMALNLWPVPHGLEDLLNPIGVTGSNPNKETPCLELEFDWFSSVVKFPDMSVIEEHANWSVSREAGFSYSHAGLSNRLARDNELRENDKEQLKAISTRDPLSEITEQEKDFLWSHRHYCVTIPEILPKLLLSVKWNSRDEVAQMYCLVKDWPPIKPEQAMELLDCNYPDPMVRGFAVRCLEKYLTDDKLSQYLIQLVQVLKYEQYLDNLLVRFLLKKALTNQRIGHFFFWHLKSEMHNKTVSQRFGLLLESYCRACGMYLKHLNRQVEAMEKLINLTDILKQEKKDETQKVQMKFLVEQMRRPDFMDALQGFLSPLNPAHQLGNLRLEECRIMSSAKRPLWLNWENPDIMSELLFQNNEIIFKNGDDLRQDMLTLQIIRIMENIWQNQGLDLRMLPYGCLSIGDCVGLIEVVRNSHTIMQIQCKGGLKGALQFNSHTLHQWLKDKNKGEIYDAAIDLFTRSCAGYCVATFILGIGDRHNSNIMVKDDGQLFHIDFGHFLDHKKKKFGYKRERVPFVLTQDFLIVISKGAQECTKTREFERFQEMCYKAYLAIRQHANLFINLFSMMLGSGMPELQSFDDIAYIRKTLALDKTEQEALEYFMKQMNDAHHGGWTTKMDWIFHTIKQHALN
T1 sequence (P27986 whole entry partner): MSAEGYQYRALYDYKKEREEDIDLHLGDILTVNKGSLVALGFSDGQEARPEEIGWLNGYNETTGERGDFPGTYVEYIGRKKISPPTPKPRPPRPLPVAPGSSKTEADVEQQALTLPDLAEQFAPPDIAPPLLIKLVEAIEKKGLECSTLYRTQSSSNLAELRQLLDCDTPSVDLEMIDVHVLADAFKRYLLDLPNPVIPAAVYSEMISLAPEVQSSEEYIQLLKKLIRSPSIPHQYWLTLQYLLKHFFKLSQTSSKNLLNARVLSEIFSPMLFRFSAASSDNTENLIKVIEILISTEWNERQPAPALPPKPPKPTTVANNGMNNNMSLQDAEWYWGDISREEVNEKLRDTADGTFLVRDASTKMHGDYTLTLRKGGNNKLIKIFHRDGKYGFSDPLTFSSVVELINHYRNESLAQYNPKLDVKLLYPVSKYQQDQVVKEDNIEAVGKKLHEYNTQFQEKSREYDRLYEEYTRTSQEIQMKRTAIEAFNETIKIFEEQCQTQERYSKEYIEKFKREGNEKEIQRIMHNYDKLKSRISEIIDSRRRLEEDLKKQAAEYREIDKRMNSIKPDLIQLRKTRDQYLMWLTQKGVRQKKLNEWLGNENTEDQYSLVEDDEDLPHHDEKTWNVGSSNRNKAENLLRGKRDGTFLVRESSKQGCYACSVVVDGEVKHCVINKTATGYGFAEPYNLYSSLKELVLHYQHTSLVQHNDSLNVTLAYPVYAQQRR
T2 sequence (P42338 whole entry): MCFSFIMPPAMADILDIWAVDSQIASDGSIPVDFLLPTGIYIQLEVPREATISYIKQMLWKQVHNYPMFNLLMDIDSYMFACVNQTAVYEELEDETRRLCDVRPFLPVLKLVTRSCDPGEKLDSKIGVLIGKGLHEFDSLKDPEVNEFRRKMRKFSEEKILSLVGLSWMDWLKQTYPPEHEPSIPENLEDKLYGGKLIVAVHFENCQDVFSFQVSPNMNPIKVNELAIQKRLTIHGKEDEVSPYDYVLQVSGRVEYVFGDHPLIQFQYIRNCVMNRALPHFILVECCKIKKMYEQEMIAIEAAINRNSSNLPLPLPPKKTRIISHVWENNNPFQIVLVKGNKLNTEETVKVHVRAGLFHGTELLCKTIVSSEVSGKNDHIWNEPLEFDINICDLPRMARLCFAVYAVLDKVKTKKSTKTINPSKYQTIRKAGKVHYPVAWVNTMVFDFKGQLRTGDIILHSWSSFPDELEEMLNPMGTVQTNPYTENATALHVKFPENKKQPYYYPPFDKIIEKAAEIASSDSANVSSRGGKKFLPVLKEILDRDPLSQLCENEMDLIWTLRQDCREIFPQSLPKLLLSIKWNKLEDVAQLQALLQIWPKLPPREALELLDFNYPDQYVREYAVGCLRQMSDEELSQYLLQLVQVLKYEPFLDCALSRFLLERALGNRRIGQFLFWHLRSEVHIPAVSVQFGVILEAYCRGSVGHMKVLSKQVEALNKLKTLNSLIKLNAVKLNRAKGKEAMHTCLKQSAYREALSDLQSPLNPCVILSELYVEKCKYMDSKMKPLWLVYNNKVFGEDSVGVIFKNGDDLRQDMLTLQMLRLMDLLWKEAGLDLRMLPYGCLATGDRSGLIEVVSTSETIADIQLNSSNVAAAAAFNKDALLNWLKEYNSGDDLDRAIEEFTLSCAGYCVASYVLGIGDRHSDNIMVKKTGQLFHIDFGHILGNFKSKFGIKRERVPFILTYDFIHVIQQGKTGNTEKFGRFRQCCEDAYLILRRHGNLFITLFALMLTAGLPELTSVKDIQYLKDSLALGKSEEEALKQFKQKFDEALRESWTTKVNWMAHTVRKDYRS
T2 sequence (P27986 whole entry partner): as the sequence (P27986 whole entry partner) above

As to `C=CC(=O)N1CC(n2nc(-c3cc(O)cc(F)c3)c3c(N)ncnc32)Cc2cc(C)ccc21` (stereo not shown) [compound 31, 1-(3-(4-amino-3-(3-fluoro-5-hydroxyphenyl)-1H-pyrazolo[3,4-d]pyrimidin-1-yl)-6-methyl-3,4-dihydroquinolin-1(2H)-yl)prop-2-en-1-one], at PI3Kα, the “PI3Kα @ 0.3 μM (% Inh)” value is given as 50.6 % Inh and the IC50 is 539 nM. At PI3Kβ, the “PI3Kβ @ 0.3 μM (% Inh)” value stood at 52.63 % Inh and the half-inhibitory concentration (IC50) was determined as 927 nM. In addition, on ITK, the “ITK @ 0.3 μM (% Inh)” value is listed as 17.1 % Inh and the IC50 was above 100000 nM.

On to `Nc1ncnc2c1c(-c1ccc(F)c(O)c1)nn2C1CCc2ccccc2C1` (racemic) [Compound No. 26, 5-(4-amino-1-(1,2,3,4-tetrahydronaphthalen-2-yl)-1H-pyrazolo[3,4-d]pyrimidin-3-yl)-2-fluorophenol], for which the “PI3Kα @ 0.3 μM (% Inh)” value at PI3Kα amounted to 53.79 % Inh. Further, the “PI3Kβ @ 0.3 μM (% Inh)” value at PI3Kβ came to 37.87 % Inh. Further, on ITK, the “ITK @ 0.3 μM (% Inh)” value turned out to be 2.15 % Inh.

`Nc1ncnc2c1c(-c1cc(O)cc(F)c1)nn2C1CCc2ccccc2C1` (single isomer, unassigned) [6b, 3-(4-amino-1-(1,2,3,4-tetrahydronaphthalen-2-yl)-1H-pyrazolo[3,4-d]pyrimidin-3-yl)-5-fluorophenol]: at PI3Kα (0.3 µM), the “PI3Kα @ 0.3 μM (% Inh)” value was 91.35 % Inh. In addition, the “PI3Kβ @ 0.3 μM (% Inh)” value at PI3Kβ (0.3 µM) amounted to 69.23 % Inh. At ITK (0.3 µM), the “ITK @ 0.3 μM (% Inh)” value worked out at 0.04 % Inh.

`Nc1ncnc2c1c(-c1ccc(Cl)c(O)c1)cn2C1Cc2ccccc2C1` [Compound No. 93, 5-[4-amino-7-(2,3-dihydro-1H-inden-2-yl)-7H-pyrrolo[2,3-d]pyrimidin-5-yl]-2-chlorophenol] had a 50% inhibitory concentration (IC50) at PI3Kα of 50.9 nM. At PI3Kβ, the “PI3Kβ @ 0.3 μM (% Inh)” value worked out at 47.09 % Inh. Further, the “ITK @ 0.3 μM (% Inh)” value at ITK was determined as 108.85 % Inh.

`Nc1ncnc2c1c(-c1ccc(Cl)c(O)c1F)nn2C1Cc2ccccc2C1` [Compound No. 100, 3-[4-amino-1-(2,3-dihydro-1H-inden-2-yl)-1H-pyrazolo[3,4-d]pyrimidin-3-yl]-6-chloro-2-fluorophenol] registered a half-maximal inhibitory concentration (IC50) at PI3Kα of 70.1 nM. For the same compound, on PI3Kβ, the “PI3Kβ @ 0.3 μM (% Inh)” value is 39.8 % Inh. For the same compound, the “ITK @ 0.3 μM (% Inh)” value at ITK came out at 112.3 % Inh.

As to `Nc1ncnc2c1c(-c1cc(O)cc(F)c1)nn2C1Cc2ccc(F)cc2C1` (stereo not shown) [compound 57, 3-[4-amino-1-(5-fluoro-2,3-dihydro-1H-inden-2-yl)-1H-pyrazolo[3,4-d]pyrimidin-3-yl]-5-fluorophenol], the 50% inhibitory concentration (IC50) at PI3Kα amounted to 71.1 nM. Further, the “PI3Kβ @ 0.3 μM (% Inh)” value on PI3Kβ stood at 60.98 % Inh. In addition, the “ITK @ 0.3 μM (% Inh)” value on ITK was 5.31 % Inh.

Regarding `Nc1ncnc2c1c(-c1cc(O)cc(F)c1)nn2C1CCc2ccccc2C1` (single isomer, unassigned) [6a, 3-(4-amino-1-(1,2,3,4-tetrahydronaphthalen-2-yl)-1H-pyrazolo[3,4-d]pyrimidin-3-yl)-5-fluorophenol], at PI3Kα (0.3 µM), the “PI3Kα @ 0.3 μM (% Inh)” value was 85.6 % Inh. In addition, on PI3Kβ (0.3 µM), the “PI3Kβ @ 0.3 μM (% Inh)” value was 55.06 % Inh. For the same compound, the “ITK @ 0.3 μM (% Inh)” value on ITK (0.3 µM) turned out to be 4.58 % Inh.

In turn, `COc1cc(-c2nn(C3Cc4ccccc4C3)c3ncnc(N)c23)ccc1C` [Compound No. 49, 1-(2,3-dihydro-1H-inden-2-yl)-3-(3-methoxy-4-methylphenyl)-1H-pyrazolo[3,4-d]pyrimidin-4-amine] came in with an IC50 against PI3Kα of 504 nM. Further, the “PI3Kβ @ 0.3 μM (% Inh)” value at PI3Kβ was 19.09 % Inh. For the same compound, at ITK, the “ITK @ 0.3 μM (% Inh)” value stood at 6.31 % Inh.

For the compound `C=CC(=O)N1CC(n2nc(-c3cc(O)cc(F)c3)c3c(N)ncnc32)Cc2cc(C)ccc21` (single isomer, unassigned) [31b, 1-(3-(4-amino-3-(3-fluoro-5-hydroxyphenyl)-1H-pyrazolo[3,4-d]pyrimidin-1-yl)-6-methyl-3,4-dihydroquinolin-1(2H)-yl)prop-2-en-1-one], inhibition on PI3Kα was half-maximal at 249 nM (IC50). Also, the “PI3Kβ @ 0.3 μM (% Inh)” value at PI3Kβ is 32.34 % Inh. For the same compound, the “ITK @ 0.3 μM (% Inh)” value on ITK is 6.31 % Inh.

As to `Nc1ncnc2c1c(-c1cc(O)cc(F)c1)cn2C1Cc2ccccc2C1` [Compound No. 63, 3-[4-amino-7-(2,3-dihydro-1H-inden-2-yl)-7H-pyrrolo[2,3-d]pyrimidin-5-yl]-5-fluorophenol], on PI3Kα, inhibition was half-maximal at 74.7 nM (IC50). Also, at PI3Kβ, the “PI3Kβ @ 0.3 μM (% Inh)” value is listed as 50.79 % Inh. At ITK, the “ITK @ 0.3 μM (% Inh)” value was 3.68 % Inh.

`Nc1ncnc2c1c(-c1cc(O)c(F)c(F)c1)nn2C1Cc2ccccc2C1` [Compound No. 81, 5-[4-amino-1-(2,3-dihydro-1H-inden-2-yl)-1H-pyrazolo[3,4-d]pyrimidin-3-yl]-2,3-difluorophenol] showed a 50% inhibitory concentration (IC50) against PI3Kα of 21.1 nM. Also, on PI3Kβ, the “PI3Kβ @ 0.3 μM (% Inh)” value was 73.05 % Inh. On ITK, the “ITK @ 0.3 μM (% Inh)” value is recorded as 2.1 % Inh.

For `Nc1ncnc2c1c(-c1cc(O)c(F)c(C(F)(F)F)c1)nn2C1Cc2ccccc2C1` [Compound No. 102, 5-[4-amino-1-(2,3-dihydro-1H-inden-2-yl)-1H-pyrazolo[3,4-d]pyrimidin-3-yl]-2-fluoro-3-(trifluoromethyl)phenol], at PI3Kα, half-maximal inhibition (IC50) was put at 21.1 nM. At PI3Kβ, the “PI3Kβ @ 0.3 μM (% Inh)” value is 67.67 % Inh. The “ITK @ 0.3 μM (% Inh)” value on ITK is reported as −5.59 % Inh.

Turning to `Nc1ncnc2c1c(-c1ccc(F)c(O)c1)nn2C1CCc2ccccc2C1` (single isomer, unassigned) [Compound No. 26a, 5-(4-amino-1-(1,2,3,4-tetrahydronaphthalen-2-yl)-1H-pyrazolo[3,4-d]pyrimidin-3-yl)-2-fluorophenol], the IC50 was 143 nM against PI3Kα, 1120 nM at PI3Kβ and above 100000 nM against ITK.

`Nc1ncnc2c1c(-c1ccc(F)c(O)c1)nn2C1CCc2ccccc2C1` (single isomer, unassigned) [Compound No. 26b, 5-(4-amino-1-(1,2,3,4-tetrahydronaphthalen-2-yl)-1H-pyrazolo[3,4-d]pyrimidin-3-yl)-2-fluorophenol]: the IC50 is 161 nM on PI3Kα, 787 nM against PI3Kβ and 51600 nM against ITK.

`COc1ccc(-c2nn(C3Cc4ccccc4C3)c3ncnc(N)c23)cc1O` [Compound No. 68, 5-[4-amino-1-(2,3-dihydro-1H-inden-2-yl)-1H-pyrazolo[3,4-d]pyrimidin-3-yl]-2-methoxyphenol]: the IC50 at PI3Kα was found to be 14 nM. Further, the “PI3Kβ @ 0.3 μM (% Inh)” value at PI3Kβ turned out to be 20.68 % Inh. The “ITK @ 0.3 μM (% Inh)” value at ITK is −6.84 % Inh.

In the case of `Nc1ncnc2c1c(-c1ccc(Br)c(O)c1)nn2C1Cc2ccccc2C1` [compound 2, 5-(4-amino-1-(2,3-dihydro-1H-inden-2-yl)-1H-pyrazolo[3,4-d]pyrimidin-3-yl)-2-bromophenol], the IC50 at PI3Kα was 17.3 nM; at ITK it was above 100000 nM.

For `N#Cc1cc(-c2cn(C3Cc4ccccc4C3)c3ncnc(N)c23)cc(O)c1F` [compound 115, 5-[4-amino-7-(2,3-dihydro-1H-inden-2-yl)-7H-pyrrolo[2,3-d]pyrimidin-5-yl]-2-fluoro-3-hydroxybenzonitrile], on PI3Kβ, the “PI3Kβ @ 0.3 μM (% Inh)” value came to 68.12 % Inh. Moreover, at ITK, the “ITK @ 0.3 μM (% Inh)” value was −9.43 % Inh.
